System: purified human Hsp90
Assay: Binding Assay: fluorescence polarization with BODIPY-labeled geldanamycin
Details: 5 μM compound, BODIPY-GM 10 nM, Hsp90 30 nM
Procedure, shortened: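 Compounds in 2% DMSO final compete with 10 nM BODIPY-GM for 30 nM purified human Hsp90, incubated overnight at room temperature in pH 7.3 HEPES buffer containing Na2MoO4 and DTT. Polarization (mP, ex/em 485/530) normalized to DMSO gives percent inhibition; autofluorescence-confounded data excluded.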

% Inhibition at 5 μM Compound Concentration [%] | Compound
1.0 | CC(C)(C)OC(=O)N1CCC[C@H]1C(=O)N1CCC(CCn2cnc(N)c3nc(Sc4cc5c(cc4Br)OCO5)nc2-3)CC1 [Example 731, tert-Butyl(2S)-2-{[4-(2-{6-amino-8-[(6-bromo-1,3-benzodioxol-5-yl)thio]-3H-purin-3-yl}ethyl)piperidin-1-yl]carbonyl}pyrrolidine-1-carboxylate]

Same assay, conditions: BODIPY-GM 10 nM, Hsp90 30 nM

IC50 [nM] | Compound
> 5000 | CC(C)(C)OC(=O)N1CCC[C@H]1C(=O)N1CCC(CCn2c(Sc3cc4c(cc3Br)OCO4)nc3c(N)ncnc32)CC1 [Example 730, tert-Butyl(2S)-2-{[4-(2-{6-amino-8-[(6-bromo-1,3-benzodioxol-5-yl)thio]-9H-purin-9-yl}ethyl)piperidin-1-yl]carbonyl}pyrrolidine-1-carboxylate]
> 5000 | CC(C)(C)OC(=O)N1CCCC[C@H]1C(=O)N1CCC(CCn2c(Sc3cc4c(cc3Br)OCO4)nc3c(N)ncnc32)CC1 [Example 732, tert-Butyl(2S)-2-{[4-(2-{6-amino-8-[(6-bromo-1,3-benzodioxol-5-yl)thio]-9H-purin-9-yl}ethyl)piperidin-1-yl]carbonyl}piperidine-1-carboxylate]
> 2000 | C[C@@H](NC(=O)OC(C)(C)C)C(=O)N1CCC[C@@H](CCn2c(Sc3cc4c(cc3Br)OCO4)nc3c(N)ncnc32)C1 [Example 734, tert-Butyl{(1R)-2-[(3S)-3-(2-{6-amino-8-[(6-bromo-1,3-benzodioxol-5-yl)thio]-9H-purin-9-yl}ethyl)piperidin-1-yl]-1-methyl-2-oxoethyl}carbamate]
140 | C[C@H](N)C(=O)N1CCC(CCn2c(Sc3cc4c(cc3Br)OCO4)nc3c(N)ncnc32)CC1 [Example 742, 9-(2-{1-[(2S)-2-Aminopropanoyl]piperidin-4-yl}ethyl)-8-[(6-bromo-1,3-benzodioxol-5-yl)thio]-9H-purin-6-amine]
40 | C[C@@H](N)C(=O)N1CCCC(CCn2c(Sc3cc4c(cc3Br)OCO4)nc3c(N)ncnc32)C1 (stereo partly drawn) [Example 743, 9-(2-{1-[(2R)-2-Aminopropanoyl]piperidin-3-yl}ethyl)-8-[(6-bromo-1,3-benzodioxol-5-yl)thio]-9H-purin-6-amine]
68 | CC(C)C[C@H](N)C(=O)N1CCC(CCn2c(Sc3cc4c(cc3Br)OCO4)nc3c(N)ncnc32)CC1 [Example 744, 9-(2-{1-[(2S)-2-Amino-4-methylpentanoyl]piperidin-4-yl}ethyl)-8-[(6-bromo-1,3-benzodioxol-5-yl)thio]-9H-purin-6-amine]
123 | CC(C)[C@H](N)C(=O)N1CCCC(CCn2c(Sc3cc4c(cc3Br)OCO4)nc3c(N)ncnc32)C1 (stereo partly drawn) [Example 745, 9-(2-{1-[(2S)-2-Amino-3-methylbutanoyl]piperidin-3-yl}ethyl)-8-[(6-bromo-1,3-benzodioxol-5-yl)thio]-9H-purin-6-amine]
240 | C[C@@H](N)C(=O)N1CCC(CCn2c(Sc3cc4c(cc3Br)OCO4)nc3c(N)ncnc32)CC1 [Example 746, 9-(2-{1-[(2R)-2-Aminopropanoyl]piperidin-4-yl}ethyl)-8-[(6-bromo-1,3-benzodioxol-5-yl)thio]-9H-purin-6-amine]
110 | C[C@H](N)C(=O)N1CCCC(CCn2c(Sc3cc4c(cc3Br)OCO4)nc3c(N)ncnc32)C1 (stereo partly drawn) [Example 747, 9-(2-{1-[(2S)-2-Aminopropanoyl]piperidin-3-yl}ethyl)-8-[(6-bromo-1,3-benzodioxol-5-yl)thio]-9H-purin-6-amine]
210 | CC(C)C[C@H](N)C(=O)N1CCCC(CCn2c(Sc3cc4c(cc3Br)OCO4)nc3c(N)ncnc32)C1 (stereo partly drawn) [Example 748, 9-(2-{1-[(2S)-2-Amino-4-methylpentanoyl]piperidin-3-yl}ethyl)-8-[(6-bromo-1,3-benzodioxol-5-yl)thio]-9H-purin-6-amine]
330 | CN[C@@H](C)C(=O)N1CCC(CCn2c(Sc3cc4c(cc3Br)OCO4)nc3c(N)ncnc32)CC1 [Example 749, 8-[(6-Bromo-1,3-benzodioxol-5-yl)thio]-9-(2-{1-[(2S)-2-(methylamino)propanoyl]piperidin-4-yl}ethyl)-9H-purin-6-amine]
180 | CC(C)(N)C(=O)N1CCC(CCn2c(Sc3cc4c(cc3Br)OCO4)nc3c(N)ncnc32)CC1 [Example 750, 9-{2-[1-(2-Amino-2-methylpropanoyl)piperidin-4-yl]ethyl}-8-[(6-bromo-1,3-benzodioxol-5-yl)thio]-9H-purin-6-amine]
195 | Nc1ncnc2c1nc(Sc1cc3c(cc1Br)OCO3)n2CCC1CCN(C(=O)C2(N)CC2)CC1 [Example 751, 9-(2-{1-[(1-Amino-cyclopropyl)carbonyl]piperidine-4-yl}ethyl)-8-[(6-bromo-1,3-benzodioxol-5-yl)thio]-9H-purin-6-amine]
130 | Nc1ncnc2c1nc(Sc1cc3c(cc1Br)OCO3)n2CCC1CCN(C(=O)[C@@H]2CCN2)CC1 [Example 752, 9-(2-{1-[(2S)-Azetidin-2-ylcarbonyl]piperidin-4-yl}ethyl)-8-[(6-bromo-1,3-benzo-dioxol-5-yl)thio]-9H-purin-6-amine]
59 | Nc1ncnc2c1nc(Sc1cc3c(cc1Br)OCO3)n2CCC1CCN(C(=O)[C@@H]2CCCN2)CC1 [Example 753, 8-[(6-Bromo-1,3-benzodioxol-5-yl)thio]-9-[2-(1-L-prolyl-piperidin-4-yl)ethyl]-9H-purin-6-amine]
50 | Nc1ncnc2c1nc(Sc1cc3c(cc1Br)OCO3)n2CCC1CCN(C(=O)[C@@H]2CCCCN2)CC1 [Example 754, 8-[(6-Bromo-1,3-benzodioxol-5-yl)thio]-9-(2-{1-[(2S)-piperidin-2-ylcarbonyl]piperidin-4-yl}ethyl)-9H-purin-6-amine]
140 | C[C@@H](N)C(=O)N1CCC[C@@H](CCn2c(Sc3cc4c(cc3Br)OCO4)nc3c(N)ncnc32)C1 [Example 755, 9-(2-{(3S)-1-[(2R)-2-Aminopropanoyl]piperidin-3-yl}ethyl)-8-[(6-bromo-1,3-benzodioxol-5-yl)thio]-9H-purin-6-amine]
205 | C[C@H](O)C(=O)N1CCC(CCn2c(Sc3cc4c(cc3Br)OCO4)nc3c(N)ncnc32)CC1 [Example 757, (2S)-1-[4-(2-{6-amino-8-[(6-bromo-1,3-benzodioxol-5-yl)thio]-9H-purin-9-yl}ethyl)piperidin-1-yl]-1-oxopropan-2-ol]
325 | Nc1ncnc2c1nc(Sc1cc3c(cc1Br)OCO3)n2CCC1CCN(C(=O)CO)CC1 [Example 760, 2-[4-(2-{6-Amino-8-[(6-bromo-1,3-benzodioxol-5-yl)thio]-9H-purin-9-yl}ethyl)piperidin-1-yl]-2-oxoethanol]
> 5000 | C[C@H](O)C(=O)N1CCC(CCn2c(Sc3ccc4c(c3)CCO4)nc3c(N)ncnc32)CC1 [Example 768, (2S)-1-(4-{2-[6-Amino-8-(2,3-dihydro-1-benzofuran-5-ylthio)-9H-purin-9-yl]ethyl}piperidin-1-yl)-1-oxopropan-2-ol]
120 | Nc1ncnc2c1nc(Sc1cc3c(cc1Br)OCO3)n2CCC1CCN(C(=O)[C@@H](O)CO)CC1 [Example 771, (2S)-3-[4-(2-{6-amino-8-[(6-bromo-1,3-benzodioxol-5-yl)thio]-9H-purin-9-yl}ethyl)piperidin-1-yl]-3-oxopropane-1,2-diol]
